Where two headings read alike, the source gives them in different places.
System: antibody core fucosylation
Assay: Inhibition of antibody core fucosylation by fucose analogs
Type: cell-based
Text: Methods of determining whether a fucose analog is capable of having an effect on antibody core fucosylation is provided in WO 2012/019165.

[1] = Table 1, 50 μM analog, read-out: Inhibition at 50 μM
[2] = Table 2, 50 μM analog, read-out: Inhibition at 50 μM

Compound: CC(=O)OC1O[C@@H]([C@]2(C)CO2)[C@@H](OC(C)=O)[C@@H](OC(C)=O)[C@@H]1OC(C)=O (stereo partly drawn) [5-methyloxiran-arabinose tetraacetate, (3S,4R,5S,6R)-6-((S)-2-methyloxiran-2-yl)-tetrahydro-2H-pyran-2,3,4,5-tetrayl tetraacetate]
- inhibition at 50 µM [1]: ~0%
- inhibition at 1000 µM (Table 1, 1 mM analog): 35 to 40%

Compound: CC(=O)OC1C(C)OC(F)C(F)C1OC(C)=O (stereo not shown) [1,2-difluoro-1,2-didexoy fucose peracetate]
- inhibition at 50 µM (Table 2, 50 μM analog): >80%
- Inhibition at 1 mM (Table 2, 1 mM analog): >80%

Compound: CC(=O)OC1O[C@@H](C)[C@@H](OC(C)=O)[C@@H](OC(C)=O)C1(F)F (stereo partly shown) [2-deoxy-2,2-difluorofucopyranose triacetate]
- inhibition at 50 µM [2]: 0%
- inhibition at 1000 µM (Table 2, 1 mM analog): 64%

Compound: CC(=O)O[C@H]([C@H](OC(C)=O)[C@H](CCl)OC(C)=O)[C@@H](C=O)OC(C)=O [6-chloro-fucose tetraacetate, 6-chlorofucose tetraacetate]
- inhibition at 50 µM [1]: 20%
- inhibition at 1000 µM (Table 1, 1 mM analog): 20 to 30%

Compound: C#C[C@H]1OC(OC(=O)c2ccncc2)[C@@H](OC(=O)c2ccncc2)[C@H](OC(=O)c2ccncc2)[C@@H]1OC(=O)c1ccncc1 (stereo partly shown) [Alkynyl fucose perisonicotinate]
- inhibition at 50 µM (Table 1, 50 μM analog): >80%
- Inhibition at 1 mM (Table 1, 1 mM analog): >80%

Compound: CC(=O)OC(C#N)[C@H]1OC(OC(C)=O)[C@@H](OC(C)=O)[C@@H]1OC(C)=O (stereo partly shown) [5-cyanoarabinofuranose tetraacetate]
- inhibition at 50 µM [1]: 5 to 10%

Compound: C=CC1OC(OC(C)=O)C(OC(C)=O)C(OC(C)=O)C1OC(C)=O (stereo not shown) [5-vinyl fucose tetraacetate, 5-ethylenylarabinose tetraacetate]
- inhibition at 50 µM (Table 1, 50 μM analog): ~0%
- Inhibition at 1 mM (Table 1, 1 mM analog): ~4%

Compound: 2-deoxy-2-fluorofucose peracetate
- inhibition at 50 µM (Table 2, 50 μM analog): >80%
- Inhibition at 1 mM (Table 2, 1 mM analog): >80%

Compound: CC(=O)OC1O[C@@H](C)[C@@H](OC(C)=O)[C@@H](OC(C)=O)C1(F)F (stereo partly drawn) [2-deoxy-2,2-difluorofucopyranose triacetate (beta)]
- inhibition at 50 µM (Table 2, 50 μM analog): 0%
- Inhibition at 1 mM (Table 2, 1 mM analog): 75%

Compound: CC(=O)O[C@H]([C@H](OC(C)=O)[C@H](CI)OC(C)=O)[C@@H](C=O)OC(C)=O [6-iodo-fucose tetraacetate, 6-iodofucose tetraacetate]
- inhibition at 50 µM [1]: 3%
- inhibition at 1000 µM (Table 1, 1 mM analog): 30%

Compound: C#CC1OC(OC(=O)C(C)(C)C)C(OC(=O)C(C)(C)C)C(OC(=O)C(C)(C)C)C1O (stereo not shown) [Alkynyl fucose 1,2,3-(trimethylacetate), 5-ethynylarabinose 1,2,3-(trimethylacetate)]
- inhibition at 50 µM (Table 1, 50 μM analog): ~0%

Compound: CC#CC(OC(C)=O)[C@@H](OC(C)=O)[C@@H](OC(C)=O)[C@@H](C=O)OC(C)=O (stereo partly shown) [5-propynyl fucose tetraacetate, 5-propynylarabinose tetraacetate]
- inhibition at 50 µM [1]: 50%
- inhibition at 1000 µM (Table 1, 1 mM analog): > 80%

Compound: CC(=O)O[C@H]([C@H](OC(C)=O)[C@@H](OC(C)=O)C(F)F)[C@@H](C=O)OC(C)=O [6,6-difluorofucose tetraacetate]
- inhibition at 50 µM [2]: > 80%
- inhibition at 1000 µM (Table 2, 1 mM analog): > 80%

Compound: C#CC(OC(C)=O)[C@@H](OC(C)=O)[C@@H](OC(C)=O)[C@@H](C=O)OC(C)=O (stereo partly shown) [Alkynyl fucose peracetate, 5-ethynylarabinose tetraacetate]
- inhibition at 50 µM [1]: > 80%
- inhibition at 1000 µM (Table 1, 1 mM analog): > 80%

Compound: 2-deoxy-2-fluorofucose diacetate
- inhibition at 50 µM (Table 2, 50 μM analog): >80%
- Inhibition at 1 mM (Table 2, 1 mM analog): >80%

Compound: C#CC[C@@H]1OC(OC(C)=O)[C@@H](OC(C)=O)[C@H](OC(C)=O)[C@@H]1OC(C)=O (stereo partly drawn) [propargyl fucose tetraacetate, (3S,4R,5R,6S)-6-(prop-2-ynyl)-tetrahydro-2H-pyran-2,3,4,5-tetrayl tetraacetate]
- inhibition at 50 µM [1]: ~10%
- inhibition at 1000 µM (Table 1, 1 mM analog): 10 to 20%

Compound: 5-Benzyloxy fucose peracetate
- inhibition at 50 µM (Table 2, 50 μM analog): 0%
- Inhibition at 1 mM (Table 2, 1 mM analog): 75%

Compound: C#C[C@@H]1OC(OC(=O)CC)[C@@H](OC(=O)CC)[C@H](OC(=O)CC)[C@@H]1OC(=O)CC (stereo partly shown) [Alkynyl fucose tetrapropanonate, 5-ethynylarabinose tetrapropropanoate]
- inhibition at 50 µM (Table 1, 50 μM analog): >80%
- Inhibition at 1 mM (Table 1, 1 mM analog): >80%
